“Also recorded” adds a separate entry of the source.
Assays:
[1] = system: A375 (human melanoma) cells; test: Proliferation study, A375 cells (Coulter Counter); format: cell-based; conditions: 10 μM, 24 h, cell count vs DMSO
Description: 50,000 cells/well were plated and treated for 24 h with each compound. The first DMSO bar in each chart serves as control for (+)-solenopsin A, (−)-solenopsin A, and ceramide C2. The second DMSO bar is the control for S11-S15.
(§1) Different analogs of solenopsin were synthesized (FIG. 1) in order to explore their structure-activity relationships. The aliphatic side chains of S14 and S13 are 4 and 8 carbons longer compared to solenopsin, respectively. S11 has an 8-carbon longer side chain, as well as an extra methyl group in the 4-position of the piperidine ring. S15 has an 11-carbon side chain similar to solenopsin, but the first carbon in the side chain is hydroxylated. Also, S15 lacks the methyl group in the 2-position of the piperidine ring. All the analogs together with (−)- and (+)-solenosin A, and the isomeric mixture of the two cis-isomers of solenopsin (S12) were tested, at 10 μM, on two different human melanoma cell lines (A375 and A2058) and one murine angiosarcoma cell line (SVR) (FIG. 2). The A375 and A2058 melanoma cell lines express mutant Braf and the SVR murine angiosarcoma cell line expresses mutant Hras. One important difference between the two human melanoma cell lines is the A2058 is PTEN null, whereas A375 is not.
(§2) A375 (human melanoma), A2058 (human melanoma), or SVR (murine angiosarcoma) cells were plated at a concentration of 50,000 cells/well. The cells were treated with 10 μM of (−)-solenopsin A, (+)-solenopsin A, or analogs (S11-S15) for 24 hours, at which point cells were counted with a Coulter Counter.

[2] = system: A2058 (human melanoma) cells; test: Proliferation study, A2058 cells (Coulter Counter); format: cell-based; conditions: 10 μM, 24 h, cell count vs DMSO
Description: as §1, §2

[3] = system: SVR (murine angiosarcoma) cells; test: Proliferation study, SVR cells (Coulter Counter); format: cell-based; conditions: 10 μM, 24 h, cell count vs DMSO
Description: as §1, §2

[4] = system: UM-SCC1A cells; test: Oxygen consumption rate (Seahorse) in UM-SCC1A cells; format: cell-based, human; conditions: 10 μM, 24 h
Description: UM-SCC1A cells were plated 15,000/well and treated for 24 h with 10 μM of (+)-solenopsin A ((+) Sol. A), (−)-solenopsin A ((−) Sol. A), and solenopsin analogs S11-S15. Oxygen consumption rate (OCR) was measured as pmoles O2/minute using a Seahorse Biosciences instrument. Data shown are an average of three experiments±s.d.
At least not in Braf mutated cell lines, such as A375 and A2058. One possibility is that solenopsin, like ceramide, may also localize to mitochondria, and cause mitochondrial induced cell death. Cellular oxygen consumption rate can be indicative of mitochondrial function. Therefore, to investigate if solenopsin A and analogs do alter mitochondrial function, UM-SCC1A (human head and neck SCC) cells were then treated with 10 μM compound or the equivalent amount of DMSO and incubated for 24 hours. A SeaHorse Bioscience instrument was used to measure the oxygen consumption rate (OCR). […] Mitophagy can be one reason for decreased OCR, but further assays are needed to confirm the cause for the observed differences.
UM-SCC1A cells were plated 15,000 per well in 200 μl DMEM supplemented with 10% FBS and 1% penicillin-streptomycin in each well of a 96-well Seahorse plate and incubated overnight at 37° C. with 5% CO2. Cells were then treated with 10 μM compound or the equivalent amount of DMSO and incubated for 24 hours. OCR was measured as pmoles O2/minute using the Seahorse Biociences instrument per manufacturer's instructions. Protein amounts in each well were then quantified using the Thermo Scientific Pierce Protein Assay, per manufacturer's instructions.

[5] = system: A375 cells; test: Superoxide (ROS) by DHE fluorescence, A375 cells; format: cell-based, human; conditions: 10 μM, 24 h
Description: Cells were treated for 24 h with 10 μM of (+)-solenopsin A ((+) Sol. A), (−)-solenopsin A ((−) Sol. A), and solenopsin analogs S11-S15. Cells were trypsined and incubated for 10 min in 10 μM dihydroethedium (DHE), followed by analysis with a FACScan flow cytometer. Data shown are an average of three experiments±s.d.
A375 or SVR cells were plated in 6 cm dishes. After cells had adhered to the plates, they were treated for 24 h with 10 μM DMSO solutions of (+)-solenopsin A, (−)-solenopsin A, or analogs (S11-S15) at which time the media was aspirated. Cells were washed with 2 mL PBS then treated with 0.05% trypsin/0.53 mM EDTA (Fisher) for 3 min at RT. Cells were collected and then pelleted at 600 g for 2 min. The supernatant was aspirated and the cells were suspended in 10 uM dihydroethidium (DHE) (Life Technologies) and incubated for 10 min in the dark at RT while shaking Following this incubation, cells were kept until counting on a Becton Dickinson FACScan flow cytometer. 10,000 cells were counted and analyzed by FlowJo 7.6.4. Mean values of DHE fluorescence intensity were compared.

[6] = system: p-Akt S473; test: Western blot p-Akt S473 in SVR cells; format: cell-based, murine; conditions: 10 μM (ceramide C2 20 μM), 24 h
Description: (§3) A375, SVR, and A2058 cells were treated for 24 h with ceramide C2 (20 μM), (+)-solenopsin A ((+) Sol. A, 10 μM), (−)-solenopsin A ((−) Sol. A, 10 μM), or solenopsin analogs S11-S15 (10 μM). The expression of p-AKT S473, p-pMAPK 44/42, and B-actin was determined by western blotting.
(§4) A375, SVR, and A2058 cells treated with solenopsin A and analogs were evaluated by Western-blotting with pAkt S473, p-pMAPK 44/42, and β-actin (FIG. 5). Although the proliferation results were more or less similar in all three cell lines, the protein expressions varied. In A375's an up-regulation of pAkt S473 and p-pMAPK 44/42 could be seen for (+)- and (−)-solenopsin A, as well as for analogs S12-S15 (FIG. 5). […] The results for cell line A2058 is similar to A375, i.e. there is an up-regulation of p-Akt S473 and p-pMAPK 44/42 in the treatment groups compared to the control. […] Both human melanoma cell lines (A375 and A2058) are reactive oxygen driven tumors, whereas the murine angiosarcoma cell line (SVR) is not. […]
(§5) Cells were grown in T-25 flasks until 80% confluent followed by treatment for 24 h with 10 μM DMSO solutions of (+)-solenopsin A, (−)-solenopsin A, or analogs (S11-S15). Sample aliquots normalized for protein quantities were size fractionated by 10% SDS-PAGE, and the proteins were transferred to a PVDF membrane. […]

[7] = system: p-pMAPK 44/42; test: Western blot p-pMAPK 44/42 in SVR cells; format: cell-based, murine; conditions: 10 μM (ceramide C2 20 μM), 24 h
Description: as §3, §4, §5

[8] = system: Pseudomonas aeruginosa; conditions: Park et al. 2008; cited from earlier work
[9] = system: phosphoinositol-3 kinase; conditions: p53 deficient renal cell carcinoma cell line 786-O; Arbiser et al. 2007; cited from earlier work
[10] = system: angiogenesis; conditions: Arbiser et al., Blood 2007; cited from earlier work
[11] = target: neuronal nitric oxide synthase (Homo sapiens, UniProt P29475); conditions: Yi et al., Int J Toxicol 2003; cited from earlier work
neuronal nitric oxide synthase, sequence (P29475 whole entry): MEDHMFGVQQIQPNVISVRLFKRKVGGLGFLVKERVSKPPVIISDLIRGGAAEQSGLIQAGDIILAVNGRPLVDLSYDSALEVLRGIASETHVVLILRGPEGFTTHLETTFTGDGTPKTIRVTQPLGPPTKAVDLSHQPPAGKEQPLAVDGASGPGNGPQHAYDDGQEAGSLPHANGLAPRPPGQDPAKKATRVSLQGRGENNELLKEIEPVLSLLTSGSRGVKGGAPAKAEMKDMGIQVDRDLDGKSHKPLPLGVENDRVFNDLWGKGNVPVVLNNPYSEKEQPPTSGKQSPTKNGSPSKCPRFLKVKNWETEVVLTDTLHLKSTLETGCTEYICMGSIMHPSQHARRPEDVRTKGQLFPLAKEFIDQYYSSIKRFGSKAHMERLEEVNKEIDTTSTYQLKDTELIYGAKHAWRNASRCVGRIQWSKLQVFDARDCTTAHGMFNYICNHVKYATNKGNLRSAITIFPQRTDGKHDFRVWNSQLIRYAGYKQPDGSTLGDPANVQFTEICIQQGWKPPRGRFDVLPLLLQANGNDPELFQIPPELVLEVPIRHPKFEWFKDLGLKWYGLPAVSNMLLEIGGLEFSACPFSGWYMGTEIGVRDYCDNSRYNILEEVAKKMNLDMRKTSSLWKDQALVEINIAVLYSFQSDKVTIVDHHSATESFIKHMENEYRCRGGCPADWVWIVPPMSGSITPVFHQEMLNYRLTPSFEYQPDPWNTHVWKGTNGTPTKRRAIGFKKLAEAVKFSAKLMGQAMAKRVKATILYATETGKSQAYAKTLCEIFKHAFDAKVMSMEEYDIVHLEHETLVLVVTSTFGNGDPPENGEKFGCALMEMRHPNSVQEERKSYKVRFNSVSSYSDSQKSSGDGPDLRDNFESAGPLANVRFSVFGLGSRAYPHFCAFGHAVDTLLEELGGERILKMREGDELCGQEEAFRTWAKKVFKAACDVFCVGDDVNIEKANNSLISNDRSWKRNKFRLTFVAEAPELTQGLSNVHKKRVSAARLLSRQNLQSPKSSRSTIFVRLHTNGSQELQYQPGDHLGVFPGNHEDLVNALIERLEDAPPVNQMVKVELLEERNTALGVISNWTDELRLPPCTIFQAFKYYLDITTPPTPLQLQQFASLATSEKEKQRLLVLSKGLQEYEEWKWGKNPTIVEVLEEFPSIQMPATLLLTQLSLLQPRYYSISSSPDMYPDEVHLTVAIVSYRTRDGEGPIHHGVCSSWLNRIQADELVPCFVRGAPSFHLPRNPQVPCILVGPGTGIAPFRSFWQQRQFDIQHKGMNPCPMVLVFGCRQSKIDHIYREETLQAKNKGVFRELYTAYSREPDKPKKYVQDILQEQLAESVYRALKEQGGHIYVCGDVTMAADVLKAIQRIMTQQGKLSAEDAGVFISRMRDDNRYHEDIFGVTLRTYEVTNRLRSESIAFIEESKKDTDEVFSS

[12] = system: PTEN; test: Lipid raft fractionation (sucrose density gradient), PTEN translocation to membrane rafts in A375 cells; format: cell-based, human; conditions: 50 μM (positive control), 1 h
Description: A375 cells were treated for 1 h with: ceramide C2 (50 μM), (+)-solenopsin A ((+) Sol. A, 20 μM), (−)-solenopsin A ((−) Sol. A, 20 μM), or solenopsin analogs S11-S15 (20 μM). Cells were lysed in 0.5% Brij96 in TNEV, loaded onto the 5-40% sucrose gradient, and centrifuged at 34,000 rpm at 4° C. for 22 h. Thirteen fractions were collected, starting from the top of the tube. Equal volumes of each fraction were analyzed by Western blotting with caveolin and PTEN antibodies. Caveolin serves a positive control for which fractions that contain lipid rafts.
Caveolin was used as a positive marker to identify lipid raft fractions and an anti-PTEN antibody was used to identify PTEN-containing fractions (FIG. 3). A375 cells were treated for 1 h with 20 μM of (+)-solenopsin, (−)-solenopsin, or analogs S11-S15. […]
Cells were grown in T-75 flasks until 80% confluent followed by treatment for 1 h with 20 μM DMSO solutions of (+)-solenopsin A, (−)-solenopsin A, analogs (S12-S15), or 50 μM of ceramide C2 in DMSO. […] Equal volumes of each fraction were analyzed by Western blot with relevant antibodies.
as §5

| Compound | antiproliferative effect [1] | antiproliferative effect [2] | antiproliferative effect [3] | oxygen consumption rate (OCR) compared to DMSO control [4] | further results |
| --- | --- | --- | --- | --- | --- |
| CCCCCCCCCCCCCCCCCCCC1CC(C)CC(C)N1 (centres unmarked) [Compound S11, 2,4-Dimethyl-6-nonadecylpiperidine] | no significant antiproliferative effect | no significant antiproliferative effect | no significant antiproliferative effect | little change compared to the control | effect on superoxide levels (DHE fluorescence) [5]: no effect on superoxide levels |
| CCCCCCCCCCCC1CCCC(C)N1 (centres unmarked) [Compound S12, 2-Methyl-6-undecylpiperidine] | anti-proliferative properties, although not as potent as solenopsin A itself; also recorded: clearly weaker than for the (−)- and (+)-solenopsin A | anti-proliferative properties, although not as potent as solenopsin A itself; also recorded: clearly weaker than for the (−)- and (+)-solenopsin A | anti-proliferative properties, although not as potent as solenopsin A itself; also recorded: clearly weaker than for the (−)- and (+)-solenopsin A | drastically reduced OCR |  |
| CCCCCCCCCCCCCCCC1CCCC(C)N1 (centres unmarked) [Compound S14, 2-Methyl-6-pentadecylpiperidine] | equally as effective as solenopsin A; also recorded: most potent analog | equally as effective as solenopsin A; also recorded: approximately equally as potent as (−)- and (+)-solenopsin A | equally as effective as solenopsin A; also recorded: most potent analog | drastically reduced OCR | expression of p-Akt S473 [6]: down-regulated; expression of p-pMAPK 44/42 [7]: down-regulated |
| CCCCCCCCCCC(O)C1CCCCN1 (centres unmarked) [Compound S15, 1-(Piperidin-2-yl)undecan-1-ol] | equally as effective as solenopsin A; also recorded: potent antiproliferative effect | equally as effective as solenopsin A; also recorded: potent antiproliferative effect; also recorded: most potent analog | equally as effective as solenopsin A; also recorded: potent antiproliferative effect | drastically reduced OCR | expression of p-Akt S473 [6]: down-regulated; expression of p-pMAPK 44/42 [7]: down-regulated |
| CCCCCCCCCCCC1CCCC(C)N1 (centres unmarked) [Solenopsin, 2-methyl-6-nundecylpiperidine] |  |  |  |  | quorum sensing in Pseudomonas aeruginosa [8]: blocks quorum sensing; phosphoinositol-3 kinase [9]: downregulated phosphoinositol-3 kinase; anti-angiogenic activity [10]: anti-angiogenic activity |
| CCCCCCCCCCCC1CCCC(C)N1 (centres unmarked) [isosolenopsin A, 2-methyl-6-nundecylpiperidine] |  |  |  |  | inhibition of neuronal nitric oxide synthase [11]: potent and selective inhibitor |
| Ceramide |  |  |  |  | amount of PTEN in the lipid raft fractions [12]: higher amount of PTEN in the lipid raft fractions |
